The record followed here is US12054469B2, “Benzothiophene-based selective estrogen receptor downregulator compounds” (The Board of Trustees of the University of Illinois, priority 2015, dated 2024).

One test concerns the target estrogen receptor (Homo sapiens (Human), UniProt P03372). Description: Western blot analysis of estrogen receptor downregulation. Format: cell-based. To be noted: 10 nM. The method, then:
Whole-cell extracts of cultured cells were prepared in lysis buffer (200 mmol/L Tris, 1% Triton X-100, 5 mmol/L EDTA) with protease and phosphatase inhibitor cocktails (1:50, both from Sigma-Aldrich) after scraping from the culture plates. Protein concentration was measured using the Bradford method (Bio-Rad). Proteins were separated under denaturing conditions and blotted onto nitrocellulose membrane (Bio-Rad) using a wet transfer system (Bio-Rad). Images of blots were acquired on a Bio-Rad ChemiDoc System following incubation with SuperSignal West Dura luminol solution (Thermo Fisher Scientific).

For the next test, the system named is MCF-7:WS8 cells. Description: Cell viability of MCF7:WS8, DNA content assay. Format: cell-based, human.
In the next test the target is ERα (Homo sapiens (Human), UniProt P03372). Description: In-cell western (ICW) ER downregulation/degradation in MCF-7:WS8 cells. To be noted: Table 2; read-out: IC50 of ER downregulation from in-cell western blot experiments. Format: cell-based.
Sequence of ERα (P03372 whole entry): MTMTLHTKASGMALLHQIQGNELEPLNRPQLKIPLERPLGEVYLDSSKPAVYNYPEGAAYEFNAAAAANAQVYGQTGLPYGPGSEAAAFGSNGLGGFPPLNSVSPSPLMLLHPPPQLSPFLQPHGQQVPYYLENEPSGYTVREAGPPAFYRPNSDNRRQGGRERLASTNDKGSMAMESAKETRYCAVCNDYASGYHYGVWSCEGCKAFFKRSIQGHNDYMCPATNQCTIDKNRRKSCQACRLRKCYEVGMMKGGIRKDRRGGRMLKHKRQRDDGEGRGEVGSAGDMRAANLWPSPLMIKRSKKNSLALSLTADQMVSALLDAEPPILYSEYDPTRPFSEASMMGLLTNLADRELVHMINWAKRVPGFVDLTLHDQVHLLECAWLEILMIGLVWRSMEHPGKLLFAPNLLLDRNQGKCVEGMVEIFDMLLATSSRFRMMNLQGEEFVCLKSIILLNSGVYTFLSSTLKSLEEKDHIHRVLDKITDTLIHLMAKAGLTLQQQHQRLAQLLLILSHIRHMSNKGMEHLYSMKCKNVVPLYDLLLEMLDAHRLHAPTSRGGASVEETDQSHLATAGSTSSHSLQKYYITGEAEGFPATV
The test system of the next test is MCF-7:TAM1 tumors. Description: MCF-7:TAM1 xenograft model of endocrine-resistant ER+ breast cancer. To be noted: 100 mg/kg, oral gavage daily. Format: in vivo, mice.

Sequence of estrogen receptor (P03372 whole entry): as above

As for `Cc1cc(F)ccc1C(=O)c1sc2cc(O)ccc2c1Oc1ccc(/C=C/C(=O)O)cc1` [Compound 1, (E)-3-(4-((2-(4-Fluoro-2-methylbenzoyl)-6-hydroxybenzo[b]thiophen-3-yl)oxy)phenyl)acrylic acid], at estrogen receptor, the “Estrogen receptor downregulation (western blot)” value (“Estrogen receptor downregulation” below) is “downregulate the estrogen receptor”.
For the molecule `O=C(O)/C=C/c1ccc(Oc2c(C(=O)c3ccc(O)cc3)sc3cc(O)ccc23)cc1` [Compound 2, (E)-3-(4-((6-Hydroxy-2-(4-hydroxybenzoyl)benzo[b]thiophen-3-yl)oxy)phenyl) acrylic acid], the “MCF-7WS8 IC50” value in the test on MCF-7:WS8 cells is “No Inhiibition”.
For the molecule `CCc1ccccc1C(=O)c1sc2cc(O)ccc2c1Oc1ccc(/C=C/C(=O)O)cc1` [Compound 3, (E)-3-(4-((2-(2-Ethylbenzoyl)-6-hydroxybenzo[b]thiophen-3-yl)oxy)phenyl) acrylic acid], the “Estrogen receptor downregulation” value on estrogen receptor was “downregulate the estrogen receptor”.
Regarding `Cc1ccccc1C(=O)c1sc2cc(O)ccc2c1Oc1ccc(/C=C/C(=O)O)cc1` [Compound 5, (E)-3-(4-((6-Hydroxy-2-(2-methylbenzoyl)benzo[b]thiophen-3-yl)oxy)phenyl) acrylic acid], the “Estrogen receptor downregulation” value at estrogen receptor is “downregulate the estrogen receptor”.
For `Cc1ccc(F)cc1C(=O)c1sc2cc(O)ccc2c1Oc1ccc(/C=C/C(=O)O)cc1` [Compound 6], the “Estrogen receptor downregulation” value on estrogen receptor is “downregulate the estrogen receptor”.
With `Cc1ccsc1C(=O)c1sc2cc(O)ccc2c1Oc1ccc(/C=C/C(=O)O)cc1` [Compound 7, (E)-3-(4-((6-Hydroxy-2-(3-methylthiophene-2-carbonyl)benzo[b]thiophen-3-yl)oxy)phenyl) acrylic acid], the IC50 at ERα is 4.6 nM. In addition, at estrogen receptor, the “Estrogen receptor downregulation” value is recorded as “downregulate the estrogen receptor”.
As to `Cc1cc(F)ccc1C(=O)c1sc2cc(O)ccc2c1Oc1ccc(NC(=O)C(=O)O)cc1` [Compound 18, 2-((4-((2-(4-Fluoro-2-methylbenzoyl)-6-hydroxybenzo[b]thiophen-3-yl)oxy)phenyl)amino)-2-oxoacetic acid], the “MCF-7WS8 IC50” value with MCF-7:WS8 cells is “No Inhibition”.
As to `Cc1ccc(C(=O)c2sc3cc(O)ccc3c2Oc2ccc(NC(=O)C(=O)O)cc2)c(C)c1` [Compound 19, 2-((4-((2-(2,4-Dimethylbenzoyl)-6-hydroxybenzo[b]thiophen-3-yl)oxy)phenyl)amino)-2-oxoacetic acid], the “MCF-7WS8 IC50” value in the test on MCF-7:WS8 cells is listed as “No inhibition”.
As for `CC/C(=C(\c1ccccc1)c1ccc(OCCN(C)C)cc1)c1ccccc1` [Tamoxifen, tamoxifen], in the test with MCF-7:TAM1 tumors, the Effect on tumor result is on record as “entirely without effect”.

By IC50 is commonly meant the concentration at which inhibition is half-maximal.
